Assay results: ChEMBL document CHEMBL1201862, “PubChem BioAssay data set” (2004)
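Interpolation was linear, between the two tested concentrations surrounding the appropriate level; five concentrations were tested over 48 hours in 96-well plates. GI50: concentration for 50% inhibition of growth.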 Calls of active or inactive are those of the source. Cut-off read from the data, not from the text of the source: active = GI50 up to about 1.1 µM and inactive = higher.

How the values were obtained:
Assay in all cases: NCI anticancer screen, dose series, 48 h
[1] = test system: RXF 393
[2] = test system: NCI-H226
[3] = test system: U-251
[4] = test system: SK-MEL-28
[5] = test system: MDA-MB-435
[6] = test system: HOP-62
[7] = test system: HCT-116
[8] = test system: COLO 205
[9] = test system: PC-3
[10] = test system: NCI-H460
[11] = test system: RPMI-8226
[12] = test system: NCI-H23
[13] = test system: Hs-578T
[14] = test system: SK-MEL-5
[15] = test system: OVCAR-3
[16] = test system: IGROV-1
[17] = test system: DU-145
[18] = test system: HOP-92
[19] = test system: Malme-3M
[20] = test system: NCI-H522

Measured: GI50

CCN(CC)c1ccc2cc(C(N)=O)c(=N)oc2c1
inactive: [1] 55 µM | [2] 19.7 µM | [3] 98.6 µM | [4] 31.3 µM | [5] 30.9 µM | [6] 38.6 µM | [7] 35.1 µM | [8] 35.2 µM | [9] 26.3 µM | [10] 27 µM | [11] 96.6 µM | [12] 42.8 µM | [13] 16.3 µM | [14] 32.5 µM | [15] 31.6 µM | [16] 21.1 µM | [17] 40.9 µM | [18] 24 µM

COc1ccccc1NCc1nnc(CCCCCCCCc2nnc(CNc3ccccc3OC)o2)o1
inactive: [1] > 100 µM | [19] > 100 µM | [3] > 100 µM | [5] > 100 µM | [6] > 100 µM | [7] > 100 µM | [8] > 100 µM | [9] > 100 µM | [10] > 100 µM | [11] > 100 µM | [12] > 100 µM | [20] > 100 µM | [13] > 100 µM | [14] > 100 µM | [15] > 100 µM | [17] > 100 µM | [18] > 100 µM

O=C1CC2(CCN(Cc3ccccc3)CC2)C(=O)N1N1CCCCC1
inactive: [1] > 100 µM | [2] > 100 µM | [19] > 100 µM | [3] > 100 µM | [4] > 100 µM | [5] > 100 µM | [6] > 100 µM | [7] > 100 µM | [8] > 100 µM | [9] > 100 µM | [10] > 100 µM | [11] > 100 µM | [12] > 100 µM | [20] > 100 µM | [13] > 100 µM | [14] > 100 µM | [15] > 100 µM | [16] > 100 µM | [17] > 100 µM

CC(=N/NC(=S)Nc1c(C)n(C)n(-c2ccccc2)c1=O)/C(C)=N\NC(=S)Nc1c(C)n(C)n(-c2ccccc2)c1=O
inactive: [1] > 100 µM | [2] > 100 µM | [19] > 100 µM | [3] > 100 µM | [5] > 100 µM | [6] > 100 µM | [7] > 100 µM | [8] > 100 µM | [9] > 100 µM | [10] > 100 µM | [12] > 100 µM | [20] > 100 µM | [13] > 100 µM | [14] > 100 µM | [15] > 100 µM | [17] > 100 µM | [18] > 100 µM

O=C(c1ccco1)N(C(=O)N1CCN(c2ccccc2)CC1)S(=O)(=O)c1ccccc1
inactive: [2] 26.4 µM | [19] 29 µM | [3] 27.4 µM | [4] 39.2 µM | [5] 23.3 µM | [6] 39.1 µM | [7] 21.3 µM | [8] 28.4 µM | [9] 28.6 µM | [10] 32.3 µM | [12] 23.7 µM | [20] 18.3 µM | [13] 32 µM | [14] 24.4 µM | [15] 26.9 µM | [17] 43.7 µM | [18] 27.3 µM

C/C(CC1SCCCS1)=C(/C)CC1SCCCS1
inactive: [1] > 100 µM | [2] > 100 µM | [19] > 100 µM | [4] > 100 µM | [5] > 100 µM | [6] > 100 µM | [7] > 100 µM | [8] > 100 µM | [9] > 100 µM | [10] > 100 µM | [11] > 100 µM | [12] > 100 µM | [13] > 100 µM | [14] > 100 µM | [15] > 100 µM | [16] > 100 µM | [17] > 100 µM

CC(C)(C)C(=O)OCC1CCC[N+]2(C)CCCCC12 (stereo unspecified)
inactive: [1] > 100 µM | [2] > 100 µM | [19] > 100 µM | [3] > 100 µM | [4] > 100 µM | [5] > 100 µM | [6] > 100 µM | [7] > 100 µM | [8] > 100 µM | [9] > 100 µM | [10] > 100 µM | [11] > 100 µM | [12] > 100 µM | [13] > 100 µM | [14] > 100 µM | [15] > 100 µM | [16] > 100 µM | [17] > 100 µM | [18] > 100 µM

COc1ccc2cc1Oc1ccc(cc1)C(Sc1ccccc1)CCOC(=O)CC2 (stereo unspecified)
inactive: [1] > 100 µM | [2] > 100 µM | [19] > 100 µM | [3] > 100 µM | [4] > 100 µM | [5] > 100 µM | [6] > 100 µM | [7] > 100 µM | [8] > 100 µM | [9] > 100 µM | [11] 13.4 µM | [12] > 100 µM | [20] > 100 µM | [13] > 100 µM | [14] 63.1 µM | [15] > 100 µM | [16] > 100 µM | [17] > 100 µM

C=CC(OC(=O)C(C)C)c1ccc(OC(=O)C(C)C)cc1 (stereo unspecified)
inactive: [2] 20.6 µM | [19] 7.57 µM | [3] 4.33 µM | [4] 10.6 µM | [5] 13.6 µM | [6] 9.95 µM | [7] 4.06 µM | [8] 8.87 µM | [9] 8.97 µM | [10] 13.9 µM | [11] 2.04 µM | [12] 20 µM | [20] 1.73 µM | [13] 35.7 µM | [14] 16.3 µM | [15] 16.9 µM | [16] 18.4 µM | [17] 32.9 µM | [18] 16.7 µM

COc1cc(C(=O)O)c(-c2cc3c(cc2C=O)OCO3)c(OC)c1OC
inactive: [19] > 10 µM | [3] > 10 µM | [4] > 10 µM | [5] > 10 µM | [6] > 10 µM | [7] > 10 µM | [8] > 10 µM | [9] > 10 µM | [11] > 10 µM | [12] > 10 µM | [20] > 10 µM | [13] > 10 µM | [14] > 10 µM | [15] > 10 µM | [16] > 10 µM | [17] > 10 µM | [18] > 10 µM

Cc1c(/C=N/NC(=S)Nc2cccc(Cl)c2)c(=O)n(-c2ccccc2)n1C
inactive: [1] 15.8 µM | [2] 13.8 µM | [3] 20.7 µM | [4] > 100 µM | [5] > 100 µM | [6] 13.9 µM | [7] 34 µM | [8] 96.6 µM | [9] 34.6 µM | [10] 9.4 µM | [11] 40.9 µM | [12] 28.7 µM | [13] 13.9 µM | [14] 36.1 µM | [16] 18.2 µM | [17] 24.1 µM | [18] 13.3 µM

Cc1ccc(C(=O)N/N=C(\N=N\c2cccc([N+](=O)[O-])c2)c2ccc(N(C)C)cc2)cc1
inactive: [2] > 100 µM | [3] > 100 µM | [4] > 100 µM | [5] 24.9 µM | [7] > 100 µM | [8] > 100 µM | [9] > 100 µM | [10] 57.7 µM | [11] 61.9 µM | [12] > 100 µM | [20] 37.2 µM | [13] > 100 µM | [14] 25.7 µM | [15] 34.6 µM | [16] > 100 µM | [17] 16.6 µM | [18] > 100 µM

COc1ccc(C(=O)Cn2c(C(=O)/C=C/c3ccco3)nc3ccccc32)cc1
inactive: [1] 41.3 µM | [2] 50.9 µM | [19] 35.2 µM | [3] 32.7 µM | [4] 42.2 µM | [5] 24.4 µM | [6] 46 µM | [7] 29.3 µM | [8] 21.7 µM | [9] 36.3 µM | [10] 23.5 µM | [11] 19.3 µM | [12] 42.4 µM | [13] 25.3 µM | [14] 26.7 µM | [15] 24.9 µM | [16] 44.1 µM | [17] 38.5 µM | [18] 51.4 µM

COC(=O)/N=[N+](\[O-])C(c1ccccc1)c1ccccc1
inactive: [1] 63.8 µM | [2] 38.6 µM | [19] 27.1 µM | [3] > 100 µM | [4] > 100 µM | [5] 31 µM | [7] > 100 µM | [8] 76.2 µM | [9] 60.4 µM | [10] > 100 µM | [11] 38.5 µM | [12] 29.1 µM | [20] > 100 µM | [13] > 100 µM | [14] 41.9 µM | [15] 98.9 µM | [16] 61.8 µM | [17] 42.6 µM

CCOC(=O)C1C=C1C(C)(C)O (stereo unspecified)
inactive: [1] > 10 µM | [2] > 10 µM | [19] > 10 µM | [3] > 10 µM | [4] > 10 µM | [5] > 10 µM | [6] > 10 µM | [9] > 10 µM | [10] > 10 µM | [11] > 10 µM | [12] > 10 µM | [13] > 10 µM | [14] > 10 µM | [15] > 10 µM | [16] > 10 µM | [17] > 10 µM | [18] > 10 µM
